From patent publication US10988477B2 (Merck Patent GmbH, priority 2018, dated 2021)

Legend:
[1] = molecular target: intracellular GCN2 (phosphorylation of the GCN2 substrate eIF2α) (Homo sapiens, UniProt Q9P2K8); assay: GCN2 cellular inhibition assay (AlphaScreen SureFire P-eIF2α Ser51, borrelidin-treated U2OS cells); format: cell-based; conditions: biomarker assay, phosphorylated eIF2α Ser51 in borrelidin-treated U2OS cells
Method in brief: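 Borrelidin at 10 μM is added to U2OS cells immediately after compound (4-fold dilution series, 40 μM top final) for 1 h at 37 °C. Phosphorylated eIF2α Ser51 in lysates is quantified by AlphaScreen and expressed as percent inhibition against borrelidin-stimulated controls.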

[2] = molecular target: GCN2 kinase (Homo sapiens, UniProt Q9P2K8); assay: GCN2 enzyme inhibition assay (Transcreener ADP2 fluorescence polarization); format: biochemical; conditions: 280 μM ATP
Chain of GCN2 kinase (Q9P2K8 whole entry): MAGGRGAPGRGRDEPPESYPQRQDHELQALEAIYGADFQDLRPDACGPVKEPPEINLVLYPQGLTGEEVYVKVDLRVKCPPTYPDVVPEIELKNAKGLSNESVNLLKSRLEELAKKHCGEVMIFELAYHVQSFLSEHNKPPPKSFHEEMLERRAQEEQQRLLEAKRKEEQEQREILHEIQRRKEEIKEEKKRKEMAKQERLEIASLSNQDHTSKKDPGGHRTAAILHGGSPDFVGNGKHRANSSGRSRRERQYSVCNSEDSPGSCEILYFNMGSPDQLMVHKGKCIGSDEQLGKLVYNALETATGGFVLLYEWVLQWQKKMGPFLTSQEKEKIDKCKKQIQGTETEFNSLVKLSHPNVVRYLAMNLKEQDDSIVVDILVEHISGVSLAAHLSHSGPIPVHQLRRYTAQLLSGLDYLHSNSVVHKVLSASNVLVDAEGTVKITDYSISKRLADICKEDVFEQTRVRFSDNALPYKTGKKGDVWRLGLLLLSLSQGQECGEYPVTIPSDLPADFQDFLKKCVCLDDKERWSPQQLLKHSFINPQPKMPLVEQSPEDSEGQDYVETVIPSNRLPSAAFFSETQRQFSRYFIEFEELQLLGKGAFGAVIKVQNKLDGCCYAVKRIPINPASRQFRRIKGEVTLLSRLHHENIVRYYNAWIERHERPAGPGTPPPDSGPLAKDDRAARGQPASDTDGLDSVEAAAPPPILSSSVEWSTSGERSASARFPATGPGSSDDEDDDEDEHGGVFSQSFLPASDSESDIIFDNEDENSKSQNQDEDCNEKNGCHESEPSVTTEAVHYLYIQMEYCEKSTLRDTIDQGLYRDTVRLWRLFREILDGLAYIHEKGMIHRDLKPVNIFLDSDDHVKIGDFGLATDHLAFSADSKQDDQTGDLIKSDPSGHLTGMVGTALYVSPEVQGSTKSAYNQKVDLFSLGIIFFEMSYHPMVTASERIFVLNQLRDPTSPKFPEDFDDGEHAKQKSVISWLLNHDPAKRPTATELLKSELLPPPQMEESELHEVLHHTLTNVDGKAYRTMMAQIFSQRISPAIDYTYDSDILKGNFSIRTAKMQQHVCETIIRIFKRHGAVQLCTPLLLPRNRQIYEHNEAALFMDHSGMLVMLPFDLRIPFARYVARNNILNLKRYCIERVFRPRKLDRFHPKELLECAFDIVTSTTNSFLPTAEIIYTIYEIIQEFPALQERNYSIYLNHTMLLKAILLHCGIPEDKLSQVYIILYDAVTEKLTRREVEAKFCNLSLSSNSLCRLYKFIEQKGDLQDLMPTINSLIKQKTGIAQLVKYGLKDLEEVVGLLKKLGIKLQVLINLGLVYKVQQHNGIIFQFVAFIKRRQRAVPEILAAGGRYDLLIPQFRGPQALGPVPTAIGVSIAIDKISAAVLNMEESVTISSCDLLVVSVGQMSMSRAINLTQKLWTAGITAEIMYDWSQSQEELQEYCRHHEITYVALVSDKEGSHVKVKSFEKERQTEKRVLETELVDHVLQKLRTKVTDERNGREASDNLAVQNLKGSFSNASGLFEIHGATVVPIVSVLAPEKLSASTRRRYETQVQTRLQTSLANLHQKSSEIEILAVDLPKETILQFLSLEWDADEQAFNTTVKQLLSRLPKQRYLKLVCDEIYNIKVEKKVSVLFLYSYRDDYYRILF
Method in brief: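 4 nM GCN2 + 200 μM (RS)7 + compound (0–8 μM), 10 min preinc.; start with ATP (280 μM final); 1 h, 25 °C; pH 7.5 Tris/NaCl/MgCl2/DTT; ADP FP readout; IC50, Ki(app) via tight-binding fit.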

[3] = Enzyme activity for compounds of Formula IV, Ki(app), 25° C.
[4] = compounds of Formula II, 4 nM GCN2 kinase

Chain of intracellular GCN2 (phosphorylation of the GCN2 substrate eIF2α) (Q9P2K8 whole entry): as above

Row | Structure (SMILES) | IC50 ([1]; compounds of Formula IV) [nM] | Ki [2, 3] [nM] | IC50 ([1]; compounds of Formula II) [nM] | Ki [2, 4] [nM]
1 | Cc1n[nH]cc1C1CCN(c2ccnc(-c3cnc4cnc(C(F)(F)F)cn34)n2)C1 (stereo not shown) [IV-575, 3-(4-(3-(3-Methyl-1H-pyrazol-4-yl)pyrrolidin-1-yl)pyrimidin-2-yl)-6-(trifluoromethyl)imidazo[1,2-a]pyrazine] | 500 to 5000 | 10 to 100 |  | 
2 | NS(=O)(=O)C1CCCN(c2ccnc(-c3cnc4cnc(C(F)F)cn34)n2)C1 (stereo not shown) [IV-56, 1-(2-(6-(Difluoromethyl)imidazo[1,2-a]pyrazin-3-yl)pyrimidin-4-yl)piperidine-3-sulfonamide] | > 5000 | 100 to 1000 |  | 
3 | O=C1NCCN2CCN(c3ccnc(-c4cnc5cnc(C(F)F)cn45)n3)CC12 (stereo not shown) [IV-86, 8-(2-(6-(Difluoromethyl)imidazo[1,2-a]pyrazin-3-yl)pyrimidin-4-yl)hexahydro-2H-pyrazino[1,2-a]pyrazin-1(6H)-one] | > 5000 | 100 to 1000 |  | 
4 | OCC1CCCN(c2ccnc(-c3cnc4cnc(C(F)F)cn34)n2)C1 (stereo not shown) [IV-121, (1-(2-(6-(Difluoromethyl)imidazo[1,2-a]pyrazin-3-yl)pyrimidin-4-yl)piperidin-3-yl)methanol] | > 5000 | 100 to 1000 |  | 
5 | OCCC1CCN(c2ccnc(-c3cnc4cnc(C(F)(F)F)cn34)n2)C1 (stereo not shown) [IV-435, 2-(1-(2-(6-(Trifluoromethyl)imidazo[1,2-a]pyrazin-3-yl)pyrimidin-4-yl)pyrrolidin-3-yl)ethan-1-ol] | 500 to 5000 | 100 to 1000 |  | 
6 | Cc1[nH]ncc1C1CN(c2ccnc(-c3cnc4cnc(C(F)F)cn34)n2)CC(C)N1 (single isomer, unassigned) [IV-462, 6-(Difluoromethyl)-3-(4-(3-methyl-5-(5-methyl-1H-pyrazol-4-yl)piperazin-1-yl)pyrimidin-2-yl)imidazo[1,2-a]pyrazine] | > 5000 | 100 to 1000 |  | 
7 | Cc1[nH]ncc1C1CN(c2ccnc(-c3cnc4cnc(C(F)(F)F)cn34)n2)CC(C)N1 (single isomer, unassigned) [IV-459, 3-(4-(3-Methyl-5-(5-methyl-1H-pyrazol-4-yl)piperazin-1-yl)pyrimidin-2-yl)-6-(trifluoromethyl)imidazo[1,2-a]pyrazine] | 500 to 5000 | 10 to 100 |  | 
8 | O=C(C1CCCN(c2ccnc(-c3cnc4cnc(C(F)F)cn34)n2)C1)N1CCNCC1 (stereo not shown) [IV-139, (1-(2-(6-(Difluoromethyl)imidazo[1,2-a]pyrazin-3-yl)pyrimidin-4-yl)piperidin-3-yl)(piperazin-1-yl)methanone] | > 5000 | 100 to 1000 |  | 
9 | C[C@H]1[C@@H](c2cn[nH]c2)OCCN1c1ccnc(-c2cnc3cnc(C(F)(F)F)cn23)n1 (racemic) [IV-215, Cis-3-Methyl-2-(1H-pyrazol-4-yl)-4-(2-(6-(trifluoromethyl)imidazo[1,2-a]pyrazin-3-yl)pyrimidin-4-yl)morpholine] | < 500 | 10 to 100 |  | 
10 | O=C1CCN(c2cc(-c3cnc4ccc(Cl)nn34)ccn2)CCN1 [II-187, 1-(4-(6-Chloroimidazo[1,2-b]pyridazin-3-yl)pyridin-2-yl)-1,4-diazepan-5-one] |  |  | > 5000 | 10 to 1000
11 | OCc1cc(C2CCCN(c3ccnc(-c4cnc5cnc(C(F)F)cn45)n3)C2)n[nH]1 (stereo not shown) [IV-93, (3-(1-(2-(6-(Difluoromethyl)imidazo[1,2-a]pyrazin-3-yl)pyrimidin-4-yl)piperidin-3-yl)-1H-pyrazol-5-yl)methanol] | > 5000 | 100 to 1000 |  | 
12 | CC1CN(c2cncc(-c3cnc4cnc(C(F)(F)F)cn34)n2)C(C)C(c2cn[nH]c2)N1 (single isomer, unassigned) [IV-649, 3-(6-(2,5-Dimethyl-3-(1H-pyrazol-4-yl)piperazin-1-yl)pyrazin-2-yl)-6-(trifluoromethyl)imidazo[1,2-a]pyrazine] | > 5000 | 100 to 1000 |  | 
13 | CC1NC(c2cn[nH]c2)C(C)N(c2ccnc(-c3cnc4cnc(C(F)(F)F)cn34)n2)C1C (stereo not shown) [IV-323, 6-(Trifluoromethyl)-3-(4-(2,3,6-trimethyl-5-(1H-pyrazol-4-yl)piperazin-1-yl)pyrimidin-2-yl)imidazo[1,2-a]pyrazine] | 500 to 5000 | < 10 |  | 

Continued, values first:

Row | IC50 ([1]; compounds of Formula IV) [nM] | Ki [2, 3] [nM] | IC50 ([1]; compounds of Formula II) [nM] | Ki [2, 4] [nM] | Structure (SMILES)
14 |  |  | < 500 | < 10 | CC1CC(F)(F)C(CNS(C)(=O)=O)CN1c1cc(-c2cnc3ccc(C(F)F)nn23)ncn1 (single isomer, unassigned) [II-304, N-((1-(6-(6-(Difluoromethyl)imidazo[1,2-b]pyridazin-3-yl)pyrimidin-4-yl)-4,4-difluoro-6-methylpiperidin-3-yl)methyl)methanesulfonamide]
15 |  |  | < 500 | < 10 | CC1C(NS(C)(=O)=O)CCCN1c1cc(-c2cnc3ccc(C(F)F)nn23)ncn1 (stereo not shown) [II-602, N-(1-(6-(6-(Difluoromethyl)imidazo[1,2-b]pyridazin-3-yl)pyrimidin-4-yl)-2-methylpiperidin-3-yl)methanesulfonamide]
16 |  |  | 500 to 5000 | 10 to 1000 | CS(C)(=O)=NC1CCCN(c2cc(-c3cnc4ccc(C(F)F)nn34)ncn2)C1 (single isomer, unassigned) [II-503, ((1-(6-(6-(Difluoromethyl)imidazo[1,2-b]pyridazin-3-yl)pyrimidin-4-yl)piperidin-3-yl)imino)dimethyl-λ^6-sulfanone]
17 |  |  | > 5000 | 10 to 1000 | OCC1CN(c2cc(-c3cnc4ccc(C(F)(F)F)nn34)ncn2)CCO1 (stereo not shown) [II-518, (4-(6-(6-(Trifluoromethyl)imidazo[1,2-b]pyridazin-3-yl)pyrimidin-4-yl)morpholin-2-yl)methanol]
18 |  |  | 500 to 5000 | 10 to 1000 | FC(F)c1ccc2ncc(-c3cc(-c4cnn(C5CCOCC5)c4)ncn3)n2n1 [II-709, 6-(Difluoromethyl)-3-[6-(1-tetrahydropyran-4-ylpyrazol-4-yl)pyrimidin-4-yl]imidazo[1,2-b]pyridazine]
19 | > 5000 | 100 to 1000 |  |  | OC[C@H]1CCCCN1c1ccnc(-c2cnc3cnc(C(F)F)cn23)n1 [IV-136, (R)-(1-(2-(6-(Difluoromethyl)imidazo[1,2-a]pyrazin-3-yl)pyrimidin-4-yl)piperidin-2-yl)methanol]
20 |  |  | > 5000 | 10 to 1000 | OCC1CN(c2cc(-c3cnc4ccc(C(F)F)nn34)ncn2)CC2(COC2)O1 (stereo not shown) [II-343, (8-(6-(6-(Difluoromethyl)imidazo[1,2-b]pyridazin-3-yl)pyrimidin-4-yl)-2,5-dioxa-8-azaspiro[3.5]nonan-6-yl)methanol]
21 |  |  | > 5000 | 10 to 1000 | FC(F)c1ccc2ncc(-c3cc(N4CCC(c5c[nH]cn5)C4)ncn3)n2n1 (stereo not shown) [II-203, 3-(6-(3-(1H-imidazol-4-yl)pyrrolidin-1-yl)pyrimidin-4-yl)-6-(difluoromethyl)imidazo[1,2-b]pyridazine]
22 |  |  | 500 to 5000 | 10 to 1000 | CC(NS(C)(=O)=O)C1CCCN(c2cc(-c3cnc4ccc(C(F)F)nn34)ccn2)C1 (stereo not shown) [II-134, N-(1-(1-(4-(6-(Difluoromethyl)imidazo[1,2-b]pyridazin-3-yl)pyridin-2-yl)piperidin-3-yl)ethyl)methanesulfonamide]
23 |  |  | 500 to 5000 | 10 to 1000 | CS(=O)(=O)NC[C@H]1CN(c2cc(-c3cnc4ccc(C(F)F)nn34)ncn2)C[C@H](C(F)(F)F)O1 [II-330, N-(((2R,6R)-4-(6-(6-(Difluoromethyl)imidazo[1,2-b]pyridazin-3-yl)pyrimidin-4-yl)-6-(trifluoromethyl)morpholin-2-yl)methyl)methanesulfonamide]
24 |  |  | 500 to 5000 | 10 to 1000 | CC1C(NS(C)(=O)=O)CCCN1c1cc(-c2cnc3ccc(C(F)F)nn23)ncn1 (single isomer, unassigned) [II-374, N-[1-[6-[6-(Difluoromethyl)imidazo[1,2-b]pyridazin-3-yl]pyrimidin-4-yl]-2-methyl-3-piperidyl]methanesulfonamide]
25 |  |  | 500 to 5000 | 10 to 1000 | C[C@H]1COCCN1c1cc(-c2cnc3ccc(C(F)F)nn23)ncn1 [II-325, (S)-4-(6-(6-(Difluoromethyl)imidazo[1,2-b]pyridazin-3-yl)pyrimidin-4-yl)-3-methylmorpholine]
26 |  |  | > 5000 | 10 to 1000 | NC(=O)c1ccc2ncc(-c3cc(N4CCN5C(=O)CCCC5C4)ncn3)n2n1 (stereo not shown) [II-727, 3-[6-(6-Oxo-3,4,7,8,9,9a-hexahydro-1H-pyrido[1,2-a]pyrazin-2-yl)pyrimidin-4-yl]imidazo[1,2-b]pyridazine-6-carboxamide]
27 |  |  | 500 to 5000 | 10 to 1000 | FC(F)c1ccc2ncc(-c3cc(N4CCCC(Cn5cncn5)C4)ncn3)n2n1 (stereo not shown) [II-339, 3-(6-(3-((1H-1,2,4-Triazol-1-yl)methyl)piperidin-1-yl)pyrimidin-4-yl)-6-(difluoromethyl)imidazo[1,2-b]pyridazine]
28 |  |  | < 500 | < 10 | C[C@H]1[C@@H](C[S@@](C)(=N)=O)CCCN1c1cc(-c2cnc3ccc(C(F)F)nn23)ncn1 [II-485, (S)-(((2S,3S)-1-(6-(6-(Difluoromethyl)imidazo[1,2-b]pyridazin-3-yl)pyrimidin-4-yl)-2-methylpiperidin-3-yl)methyl)(imino)(methyl)-λ^6-sulfanone]
29 |  |  | > 5000 | > 1000 | CC1NCCN(c2cc(-c3cnc4ccc(C(F)F)nn34)ncn2)C1CNS(C)(=O)=O (stereo not shown) [II-336, N-((1-(6-(6-(Difluoromethyl)imidazo[1,2-b]pyridazin-3-yl)pyrimidin-4-yl)-3-methylpiperazin-2-yl)methyl)methanesulfonamide]
